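Grown in 96-well plates, cells were treated for 48 hours with each compound at five concentrations. Insufficient inhibition: endpoint recorded as highest concentration tested. At the GI50, growth is halved.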 Activity calls are given as the source filed them. Cut-off read from the data, not from the text of the source: active = GI50 up to about 1.1 µM and inactive = higher.
Key:
Test in all cases: growth of human tumour cells (NCI), 48 h
786-0 = tested on: 786-0
A498 = tested on: A498
A549 = tested on: A549
ACHN = tested on: ACHN
BT-549 = tested on: BT-549
CAKI-1 = tested on: CAKI-1
COLO 205 = tested on: COLO 205
DU-145 = tested on: DU-145
EKVX = tested on: EKVX
HCC 2998 = tested on: HCC 2998
HCT-116 = tested on: HCT-116
HCT-15 = tested on: HCT-15
HL-60 = tested on: HL-60
HOP-62 = tested on: HOP-62
HOP-92 = tested on: HOP-92
HT-29 = tested on: HT-29
Hs-578T = tested on: Hs-578T
IGROV-1 = tested on: IGROV-1
K562 = tested on: K562
KM12 = tested on: KM12
LOX IMVI = tested on: LOX IMVI
M14 = tested on: M14
MCF7 = tested on: MCF7
MDA-MB-231 = tested on: MDA-MB-231
MDA-MB-435 = tested on: MDA-MB-435
MDA-N = tested on: MDA-N
Malme-3M = tested on: Malme-3M
NCI-H226 = tested on: NCI-H226
NCI-H23 = tested on: NCI-H23
NCI-H460 = tested on: NCI-H460
NCI-H522 = tested on: NCI-H522
NCI/ADR-RES = tested on: NCI/ADR-RES
OVCAR-3 = tested on: OVCAR-3
OVCAR-4 = tested on: OVCAR-4
OVCAR-5 = tested on: OVCAR-5
OVCAR-8 = tested on: OVCAR-8
PC-3 = tested on: PC-3
RPMI-8226 = tested on: RPMI-8226
RXF 393 = tested on: RXF 393
SF-268 = tested on: SF-268
SF-295 = tested on: SF-295
SF-539 = tested on: SF-539
SK-MEL-28 = tested on: SK-MEL-28
SK-MEL-2 = tested on: SK-MEL-2
SK-MEL-5 = tested on: SK-MEL-5
SK-OV-3 = tested on: SK-OV-3
SN12C = tested on: SN12C
SNB-19 = tested on: SNB-19
SNB-75 = tested on: SNB-75
SR = tested on: SR
SW-620 = tested on: SW-620
T47D = tested on: T47D
TK-10 = tested on: TK-10
U-251 = tested on: U-251
UACC-257 = tested on: UACC-257
UACC-62 = tested on: UACC-62
UO-31 = tested on: UO-31
CCRF-CEM = tested on: CCRF-CEM
MOLT-4 = tested on: MOLT-4

SMILES: O=S(=O)(c1cnccc1N1CCN(CCO)CC1)N1CCCC1
- GI50 (786-0): > 100 µM (inactive)
- GI50 (A498): > 100 µM (inactive)
- GI50 (A549): > 100 µM (inactive)
- GI50 (ACHN): > 100 µM (inactive)
- GI50 (BT-549): > 100 µM (inactive)
- GI50 (CAKI-1): > 100 µM (inactive)
- GI50 (COLO 205): > 100 µM (inactive)
- GI50 (DU-145): > 100 µM (inactive)
- GI50 (EKVX): > 100 µM (inactive)
- GI50 (HCC 2998): > 100 µM (inactive)
- GI50 (HCT-116): > 100 µM (inactive)
- GI50 (HCT-15): > 100 µM
- GI50 (HL-60): > 100 µM (inactive)
- GI50 (HOP-62): > 100 µM (inactive)
- GI50 (HOP-92): > 100 µM (inactive)
- GI50 (HT-29): > 100 µM (inactive)
- GI50 (Hs-578T): > 100 µM (inactive)
- GI50 (IGROV-1): > 100 µM (inactive)
- GI50 (K562): > 100 µM (inactive)
- GI50 (KM12): > 100 µM (inactive)
- GI50 (LOX IMVI): > 100 µM (inactive)
- GI50 (M14): > 100 µM (inactive)
- GI50 (MCF7): > 100 µM (inactive)
- GI50 (MDA-MB-231): > 100 µM (inactive)
- GI50 (MDA-MB-435): > 100 µM (inactive)
- GI50 (MDA-N): > 100 µM (inactive)
- GI50 (Malme-3M): > 100 µM (inactive)
- GI50 (NCI-H226): > 100 µM (inactive)
- GI50 (NCI-H23): > 100 µM (inactive)
- GI50 (NCI-H460): > 100 µM (inactive)
- GI50 (NCI-H522): > 100 µM (inactive)
- GI50 (NCI/ADR-RES): > 100 µM (inactive)
- GI50 (OVCAR-3): > 100 µM (inactive)
- GI50 (OVCAR-4): > 100 µM (inactive)
- GI50 (OVCAR-5): > 100 µM (inactive)
- GI50 (OVCAR-8): > 100 µM (inactive)
- GI50 (PC-3): > 100 µM (inactive)
- GI50 (RPMI-8226): > 100 µM (inactive)
- GI50 (RXF 393): > 100 µM (inactive)
- GI50 (SF-268): > 100 µM (inactive)
- GI50 (SF-295): > 100 µM (inactive)
- GI50 (SF-539): > 100 µM (inactive)
- GI50 (SK-MEL-28): > 100 µM (inactive)
- GI50 (SK-MEL-2): > 100 µM (inactive)
- GI50 (SK-MEL-5): > 100 µM (inactive)
- GI50 (SK-OV-3): > 100 µM (inactive)
- GI50 (SN12C): > 100 µM (inactive)
- GI50 (SNB-19): > 100 µM (inactive)
- GI50 (SNB-75): > 100 µM (inactive)
- GI50 (SR): > 100 µM (inactive)
- GI50 (SW-620): > 100 µM (inactive)
- GI50 (T47D): > 100 µM (inactive)
- GI50 (TK-10): > 100 µM (inactive)
- GI50 (U-251): > 100 µM (inactive)
- GI50 (UACC-257): > 100 µM (inactive)
- GI50 (UACC-62): > 100 µM (inactive)
- GI50 (UO-31): > 100 µM (inactive)

SMILES: COC(=O)c1ccccc1/C=C1\Cc2ccc3ccccc3c2C1C (stereo not drawn)
- GI50 (786-0): 81.5 µM (inactive)
- GI50 (A498): > 100 µM (inactive)
- GI50 (A549): 51.3 µM (inactive)
- GI50 (ACHN): > 100 µM (inactive)
- GI50 (BT-549): 51.8 µM (inactive)
- GI50 (CAKI-1): > 100 µM (inactive)
- GI50 (CCRF-CEM): 45.8 µM (inactive)
- GI50 (COLO 205): 60.1 µM (inactive)
- GI50 (DU-145): > 100 µM (inactive)
- GI50 (EKVX): 37.7 µM (inactive)
- GI50 (HCC 2998): > 100 µM (inactive)
- GI50 (HCT-116): 8.09 µM (inactive)
- GI50 (HCT-15): 58.5 µM
- GI50 (HL-60): 24.1 µM (inactive)
- GI50 (HOP-92): 67.9 µM (inactive)
- GI50 (Hs-578T): 34.6 µM (inactive)
- GI50 (IGROV-1): > 100 µM (inactive)
- GI50 (K562): 37.6 µM (inactive)
- GI50 (KM12): 41.4 µM (inactive)
- GI50 (LOX IMVI): > 100 µM (inactive)
- GI50 (M14): 37.4 µM (inactive)
- GI50 (MCF7): 50.4 µM (inactive)
- GI50 (MDA-MB-231): > 100 µM (inactive)
- GI50 (MDA-MB-435): 45.7 µM (inactive)
- GI50 (MDA-N): 43.6 µM (inactive)
- GI50 (MOLT-4): 27.2 µM (inactive)
- GI50 (Malme-3M): 53.7 µM (inactive)
- GI50 (NCI-H226): > 100 µM (inactive)
- GI50 (NCI-H460): > 100 µM (inactive)
- GI50 (NCI-H522): 16.6 µM (inactive)
- GI50 (NCI/ADR-RES): 36 µM (inactive)
- GI50 (OVCAR-3): 25.6 µM (inactive)
- GI50 (OVCAR-4): 45.6 µM (inactive)
- GI50 (OVCAR-5): 13.2 µM (inactive)
- GI50 (OVCAR-8): > 100 µM (inactive)
- GI50 (PC-3): 60.7 µM (inactive)
- GI50 (RPMI-8226): 37 µM (inactive)
- GI50 (RXF 393): 39.2 µM (inactive)
- GI50 (SF-268): > 100 µM (inactive)
- GI50 (SF-295): 70.8 µM (inactive)
- GI50 (SF-539): > 100 µM (inactive)
- GI50 (SK-MEL-28): > 100 µM (inactive)
- GI50 (SK-MEL-2): > 100 µM (inactive)
- GI50 (SK-MEL-5): 20.9 µM (inactive)
- GI50 (SN12C): 98.9 µM (inactive)
- GI50 (SNB-19): > 100 µM (inactive)
- GI50 (SNB-75): 72.4 µM (inactive)
- GI50 (SR): 32.7 µM (inactive)
- GI50 (SW-620): 93.3 µM (inactive)
- GI50 (T47D): 17.4 µM (inactive)
- GI50 (TK-10): > 100 µM (inactive)
- GI50 (U-251): > 100 µM (inactive)
- GI50 (UACC-257): 48.9 µM (inactive)
- GI50 (UACC-62): 57 µM (inactive)
- GI50 (UO-31): 42.1 µM (inactive)

SMILES: COC(=O)C1=NN2c3ccccc3C(=O)OCCC2(C)C1 (stereo not drawn)
- GI50 (786-0): > 100 µM (inactive)
- GI50 (A498): > 100 µM (inactive)
- GI50 (A549): > 100 µM (inactive)
- GI50 (ACHN): > 100 µM (inactive)
- GI50 (BT-549): > 100 µM (inactive)
- GI50 (CAKI-1): > 100 µM (inactive)
- GI50 (CCRF-CEM): > 100 µM (inactive)
- GI50 (COLO 205): > 100 µM (inactive)
- GI50 (DU-145): > 100 µM (inactive)
- GI50 (EKVX): > 100 µM (inactive)
- GI50 (HCC 2998): > 100 µM (inactive)
- GI50 (HCT-116): > 100 µM (inactive)
- GI50 (HCT-15): > 100 µM
- GI50 (HL-60): > 100 µM (inactive)
- GI50 (HOP-62): > 100 µM (inactive)
- GI50 (HOP-92): > 100 µM (inactive)
- GI50 (HT-29): > 100 µM (inactive)
- GI50 (Hs-578T): > 100 µM (inactive)
- GI50 (IGROV-1): > 100 µM (inactive)
- GI50 (K562): > 100 µM (inactive)
- GI50 (KM12): > 100 µM (inactive)
- GI50 (LOX IMVI): > 100 µM (inactive)
- GI50 (MCF7): > 100 µM (inactive)
- GI50 (MDA-MB-231): > 100 µM (inactive)
- GI50 (MDA-MB-435): > 100 µM (inactive)
- GI50 (MDA-N): > 100 µM (inactive)
- GI50 (MOLT-4): > 100 µM (inactive)
- GI50 (Malme-3M): > 100 µM (inactive)
- GI50 (NCI-H226): > 100 µM (inactive)
- GI50 (NCI-H23): > 100 µM (inactive)
- GI50 (NCI-H460): 68.2 µM (inactive)
- GI50 (NCI-H522): > 100 µM (inactive)
- GI50 (NCI/ADR-RES): > 100 µM (inactive)
- GI50 (OVCAR-3): > 100 µM (inactive)
- GI50 (OVCAR-4): > 100 µM (inactive)
- GI50 (OVCAR-5): > 100 µM (inactive)
- GI50 (OVCAR-8): > 100 µM (inactive)
- GI50 (PC-3): > 100 µM (inactive)
- GI50 (RPMI-8226): > 100 µM (inactive)
- GI50 (RXF 393): > 100 µM (inactive)
- GI50 (SF-268): > 100 µM (inactive)
- GI50 (SF-295): > 100 µM (inactive)
- GI50 (SF-539): > 100 µM (inactive)
- GI50 (SK-MEL-28): > 100 µM (inactive)
- GI50 (SK-MEL-2): > 100 µM (inactive)
- GI50 (SK-MEL-5): > 100 µM (inactive)
- GI50 (SK-OV-3): > 100 µM (inactive)
- GI50 (SN12C): > 100 µM (inactive)
- GI50 (SNB-75): > 100 µM (inactive)
- GI50 (SR): > 100 µM (inactive)
- GI50 (SW-620): > 100 µM (inactive)
- GI50 (T47D): > 100 µM (inactive)
- GI50 (TK-10): > 100 µM (inactive)
- GI50 (U-251): > 100 µM (inactive)
- GI50 (UACC-62): > 100 µM (inactive)
- GI50 (UO-31): > 100 µM (inactive)

Source: ChEMBL document CHEMBL1201862, “PubChem BioAssay data set” (2004)
